Data published in US11345669B2, “Urea derivatives and methods of use thereof” (NodThera Limited, priority 2017, dated 2022).
pIC50: −log10 of the molar value.

Tested on: IL1-β release upon NLRP3 activation in peripheral blood mononuclear cells (PBMC)
Test: PBMC IC50 Determination Assay
Format: cell-based
Conditions: Homo sapiens; PBMC from buffy coats, LPS 3 h, compound 30 min, then ATP (5 mM) or nigericin (10 μM) for 1 h; IL-1β in media by ELISA; read-out: PBMCs, IC50
Protocol: PBMC IC50 Determination Assay
The compounds of the present disclosure were tested for their inhibitory activity against IL1-β release upon NLRP3 activation in peripheral blood mononuclear cells (PBMC).
Isolated cells were seeded into the wells of a 96-well plate and incubated for 3 h with lipopolysaccharide (LPS). Following medium exchange, the compounds of the present disclosure were added (a single compound per well) and the cells were incubated for 30 min. Next, the cells were stimulated either with ATP (5 mM) or nigericin (10 μM) for 1 h and the cell culture media from the wells were collected for further analysis.
The release of IL-1β into the media was determined by a quantitative detection of IL-1β in 5 the media using an IL-1β enzyme-linked immunosorbent assay (ELISA) Ready-SET-Go!, eBioscience cat. […] Subsequently, plates were blocked with blocking buffer for 1 h at room temperature (rt) and after washing with a buffer (PBS with 0.05% Tween-20) incubated with protein standard and culture media. […] Plates were washed and incubated with HRP-streptavidin for 30 min at rt and washed again. The signal was developed after addition of 3,39,S,59-tetramethylbenzidine-peroxidase (TMB) until color appeared and the reaction was stopped by 2 M H2SO4. A microplate spectrophotometer (BioTek) was used to detect signals with 450 nm. The detection range of IL-1β ELISA was […].

Row | Structure (SMILES) | pIC50
1 | COC(=O)C(Cc1cccc(O)c1)NC(=O)Nc1c2c(cc3c1CCC3)CCC2 (stereo not drawn) [Example 2A, Methyl2-{[(1,2,3,5,6,7-hexahydro-s-indacen-4-yl)carbamoyl]amino}-3-(3-hydroxyphenyl)propanoate] | 5.60
2 | CC(C)OC(=O)CNC(=O)Nc1c2c(cc3c1CCC3)CCC2 [Example 2AA, propan-2-yl 2-{[(1,2,3,5,6,7-hexahydro-s-indacen-4-yl)carbamoyl]amino}acetate] | 5.74
3 | CCOC(=O)C(Cc1ccon1)NC(=O)Nc1c2c(cc3c1CCC3)CCC2 (stereo not drawn) [Example 2AB, Ethyl 2-{[(1,2,3,5,6,7-hexahydro-s-indacen-4-yl)carbamoyl]amino}-3-(1,2-oxazol-3-yl)propanoate] | 5.74
4 | CCOC(=O)C(Cc1ncco1)NC(=O)Nc1c2c(cc3c1CCC3)CCC2 (stereo not drawn) [Example 2AC, Ethyl 2-{[(1,2,3,5,6,7-hexahydro-s-indacen-4-yl)carbamoyl]amino}-3-(1,3-oxazol-2-yl)propanoate] | 6.17
5 | CCOC(=O)[C@@H](Cc1cccnc1)NC(=O)Nc1cc2c(cc1C(C)C)CCC2 [Example 2AD, Ethyl (2R)-2-({[6-(propan-2-yl)-2,3-dihydro-1H-inden-5-yl]carbamoyl}amino)-3-(pyridin-3-yl)propanoate] | 5.54
6 | COC(=O)[C@@H](Cc1cncnc1)NC(=O)Nc1c2c(cc3c1CCC3)CCC2 [Example 2AE, Methyl (2R)-2-{[(1,2,3,5,6,7-hexahydro-s-indacen-4-yl)carbamoyl]amino}-3-(pyrimidin-5-yl)propanoate] | 5.35
7 | COC(=O)[C@@H](Cc1cnccn1)NC(=O)Nc1c2c(cc3c1CCC3)CCC2 [Example 2AF, Methyl (2R)-2-{[(1,2,3,5,6,7-hexahydro-s-indacen-4-yl)carbamoyl]amino}-3-(pyrazin-2-yl)propanoate] | 6.34
8 | CCOC(=O)C(Cc1ccnnc1)NC(=O)Nc1c2c(cc3c1CCC3)CCC2 (stereo not drawn) [Example 2AG, Ethyl 2-{[(1,2,3,5,6,7-hexahydro-s-indacen-4-yl)carbamoyl]amino}-3-(pyridazin-4-yl)propanoate] | 5.22
9 | CCOC(=O)C(Cc1ccncn1)NC(=O)Nc1c2c(cc3c1CCC3)CCC2 (stereo not drawn) [Example 2AI, ethyl 2-{[(1,2,3,5,6,7-hexahydro-s-indacen-4-yl)carbamoyl]amino}-3-(pyrimidin-4-yl)propanoate] | 5.17
10 | O=C(Nc1c2c(cc3c1CCC3)CCC2)NC(Cc1ncccn1)C(=O)O (stereo not drawn) [Example 2AJ, 2-{[(1,2,3,5,6,7-hexahydro-s-indacen-4-yl)carbamoyl]amino}-3-(pyrimidin-2-yl)propanoic acid] | 4.82
11 | COC(=O)C(Cc1ccccc1O)NC(=O)Nc1c2c(cc3c1CCC3)CCC2 (stereo not drawn) [Example 2B, Methyl2-{[(1,2,3,5,6,7-hexahydro-s-indacen-4-yl)carbamoyl]amino}-3-(2-hydroxyphenyl)propanoate] | 7.22
12 | COC(=O)[C@@H](CC(N)=O)NC(=O)Nc1c2c(cc3c1CCC3)CCC2 [Example 2BB, methyl(2R)-3-carbamoyl-2-{[(1,2,3,5,6,7-hexahydro-s-indacen-4yl)carbamoyl]amino}propanoate] | 4.49
13 | COC(=O)C(Cc1cccc(C(C)=O)c1)NC(=O)Nc1c2c(cc3c1CCC3)CCC2 (stereo not drawn) [Example 2C, Methyl 3-(3-acetylphenyl)-2-{[(1,2,3,5,6,7-hexahydro-s-indacen-4-yl)carbamoyl]amino}propanoate] | 6.46
14 | COC(=O)[C@@H](Cc1cccs1)NC(=O)Nc1c2c(cc3c1CCC3)CCC2 [Example 2CC, methyl (2R)-2-{[(1,2,3,5,6,7-hexahydro-s-indacen-4-yl)carbamoyl]amino}-3-(thiophen-2-yl)propanoate] | 6.30
15 | COC(=O)[C@@H](Cc1ccc(C#N)cc1)NC(=O)Nc1c2c(cc3c1CCC3)CCC2 [Example 2D, Methyl (2R)-3-(4-cyanophenyl)-2-{[(1,2,3,5,6,7-hexahydro-s-indacen-4-yl)carbamoyl]amino}propanoate] | 5.85
